# Laboratory results published in patent publication US20150290105A1, “COMPOSITION COMPRISING SYRINGARESINOL FOR IMPROVING THE SKIN” (AMOREPACIFIC CORPORATION, priority 2011, published 2015).
# Columns and labels:
# SIRT1 = SIRT1 expression promoting effect in human keratinocytes; assay type: cell-based; details: HaCaT cells, 20, 50 or 100 μM, 24 hours, FIG. 3
# Method: Human keratinocyte HaCaT cells or human fibroblast HDF cells were cultured under the condition of 37° C. and 5% CO2 in DMEM ((Gibco 1210-0038)) containing 10% fetal bovine serum.
# The cultured cells were treated with syringaresinol dissolved in DMSO at a concentration of 20, 50 or 100 μM for 24 hours. Separately from this, the cells were treated with DMSO of 1/1000 of the volume of the culture medium as a negative control. After treating with the test substance, the cells were washed twice with cold PBS and RNA was extracted using TRIzol reagent (Invitrogen). Then, cDNA was synthesized using 1 μg/μL of the extracted RNA and a reverse transcription system (Promega). The expression pattern of the SIRT1 and GAPDH genes was monitored using the synthesized cDNA and predesigned primers and probes (Applied Biosystems; SIRT1, Hs01009006_ml; GAPDH, Hs99999905_ml). PCR reaction and analysis were carried out using the Rotor-Gene 3000 system (Corbett Research, Sydney, Australia). The result is shown in FIG. 3 (keratinocytes) and FIG. 4 (fibroblasts).
# [1] = Skin whitening effect when applied to UVB-tanned human skin; assay type: in vivo; details: 1% applied on upper arm after UVB, 10 weeks, 12 male subjects
# Method: First, opaque tapes having holes of 1.5 cm in diameter were attached on the upper arms of 12 healthy male subjects and UVB of about 1.5-2 times the minimal erythemal dose was irradiated to each subject to induce skin tanning. […] Then, the change was monitored for 10 weeks. The color of the skin was measured with 1-week interval using the CR2002 colorimeter (Minolta, Japan). The change in skin color (ΔL*) between the time when the test substance was applied and the time when the test was completed was calculated according to Equation 3. Skin whitening effect is evaluated by comparing the ΔL* of the part where the test substance was applied with that of the control part. A ΔL* value of about 2 can be interpreted as distinct skin whitening effect and one about 1.5 can be evaluated as positive skin whitening effect.
# ΔL*=(L* when test was completed)−(L* when test substance was applied) [Equation 3]
# [2] = Free radical scavenging ability (DPPH); details: 37° C. 30 minutes, FIG. 2
# Method: A radical solution was prepared by dissolving 100 µM diphenylpicrylhydrazyl (DPPH), composed of stable free radicals, in 99% ethanol. A reaction solution was prepared by dissolving syringaresinol in distilled water with different concentrations (pg/mL) and mixing the syringaresinol solution with the radical solution. A reaction solution not containing syringaresinol was used as a negative control and a reaction solution containing vitamin C (Vit C) was used as a positive control. After sufficiently reacting at 37° C. for 30 minutes, radical scavenging ability was evaluated by measuring absorbance at 515 nm. The radical scavenging ability was calculated relative to the negative control group as 100.
# interleukin 6 gene = experiment: Interleukin 6 gene expression in keratinocytes (Q-RT-PCR); assay type: cell-based; details: 24 hours, relative to non-treated control
# Method: Interleukin 6 (IL-6) is a cytokine secreted by keratinocytes, etc. Increased secretion owing to activation of the IL-6 gene leads to bright skin color and skin tone and suppressed skin pigmentation such as melasma or blemish. It was investigated whether syringaresinol can increase the expression of the IL-6 gene in skin keratinocytes.
# Keratinocytes were treated with 10 ppm or 100 ppm syringaresinol. 24 hours later, the cells were recovered and washed twice with 10 mL of PBS. Then, total RNA was isolated from the cells using TRIzol reagent (Invitrogen, Carlsbad, Calif., USA). The isolated RNA was purified once more using the Qiagen RNeasy kit (Qiagen, Valencia, Calif.) and cDNA was synthesized therefrom using the Superscript Reverse Transcriptase (RT) II kit (Invitrogen, Carlsbad, Calif.). Subsequently, the change in the expression of the interleukin 6 gene was quantitatively analyzed by real-time reverse transcription polymerase chain reaction (Q-RT-PCR). The change in the gene expression pattern was evaluated using the TaqMan gene expression assay kit (Applied Biosystems, Forster City, Calif.). Hs00174360_ml was used as a primer. The expression level of interleukin 6 in the cells was analyzed by real-time PCR and was calculated relative to a non-treated control group.
structure (smiles),measurement,setting,value
"COc1cc(C2OCC3C(c4cc(OC)c(O)c(OC)c4)OCC23)cc(OC)c1O (centres unmarked) [Syringaresinol, syringaresinol]",Increase of SIRT1 expression,SIRT1,≥ 4 times
same,Change in skin brightness (ΔL*),[1],1.98 ± 0.11
same,Free radical scavenging ability,[2],scavenge free radicals in a concentration-dependent manner and the effect is superior to that of vitamin C
same,Expression of IL-6 gene,interleukin 6 gene; 10 ppm,3.5
same,Expression of IL-6 gene,interleukin 6 gene; 100 ppm,8.2
